Entries after “also recorded” stand apart in the source; their conditions may differ.
What was measured:
[1] = system: phosphorylation state of MLKL in MCF7 cells; assay: Western blot of phospho-MLKL (Ser358) in MCF7 cells, necroptosis induced by TNF-alpha and z-VAD-fmk; format: cell-based; details: then TNF a 10 ng/ml 20 hrs, z-VAD-fmk 10 μM, One-Way ANOVA
Experimental: (§1) MCF7 and HT29 cells were cultured in DMEM along with 10% FBS, 1% Penicillin-Streptomycin and 1% Glutamine. The cells were pre-treated with 0.1% DMSO or z-VAD-fmk (10 μM) to induce necroptosis (positive control). In order to evaluate the effect of candidate agents on the induced necroptosis, Necrostatin 1 (Nec-1 (10 μM)) or Estetrol (E4 (10^-7 M) was added to the cells for 1 hr and was further subjected to Tumor Necrosis Factor (TNF) a (10 ng/ml) treatment for 20 hrs. The cells were then washed, followed by isolation and quantification of the total protein. 20 μg of protein from each treatment group was used for SDS-PAGE separation (10% […] gel) and was then transferred to PVDF membrane via a transfer apparatus. Post transfer, the membranes were blocked with 5% milk and further washed with the wash buffer. The membranes were further incubated with anti-Phospho-MLKL (Ser358) Polyclonal Antibody; Cat No: PA5-105678 (Thermofisher Scientific) at a dilution of 1/1000. The membranes were then incubated with secondary antibody (anti-Rabbit IgG, HRP-linked antibody, Cell signaling, Cat No: 7074S) at a dilution of 1/1000 and visualized using Western Blot substrate (Western Lightning Plus-ECL, Perkin Elmer, NEL104001EA) as per manufacturer's protocols. The results are shown in FIGS. 6 and 7, respectively for MCF7 and HT29 cells.

[2] = system: phosphorylation state of MLKL in HT29 cells; assay: Western blot of phospho-MLKL (Ser358) in HT29 cells, necroptosis induced by TNF-alpha and z-VAD-fmk; format: cell-based; details: then TNF a 10 ng/ml 20 hrs, z-VAD-fmk 10 μM, One-Way ANOVA
Experimental: as §1

[3] = Nec-1 10 μM for 1 hr, listed as Nec 1
[4] = Nec-1 10 μM for 1 hr, listed as Necrostatin 1
[5] = E4 10^-7 M for 1 hr, listed as E4

Q: With `CN1C(=O)C(Cc2c[nH]c3ccccc23)NC1=S` (centres unmarked) [Nec-1, Necrostatin-1] as the molecule, how does the “reduction of MLKL phosphorylation versus TNF-alpha + z-VAD-fmk induced cells” value (from here on “reduction”) [1, 3] read?
A: The value was “statistically significant (*p<0.05); also recorded: statistically relevant (*p<0.05)”.

Q: What about the “reduction” value [1, 4] of the same molecule?
A: Its value is “decrease of phosphorylation of MLKL”.

Q: What about the “reduction” value [2, 3] of the same molecule?
A: Its value is “statistically Non-Significant (NS)”.

Q: And the “reduction” value [2, 4]?
A: The value was “decrease of phosphorylation of MLKL”.

Q: Which results are given for `C[C@]12CC[C@@H]3c4ccc(O)cc4CC[C@H]3[C@@H]1[C@@H](O)[C@@H](O)[C@@H]2O` [Estetrol]?
A: reduction of MLKL phosphorylation versus TNF-alpha + z-VAD-fmk induced cells ([1]; E4 10^-7 M for 1 hr): decrease of phosphorylation of MLKL; reduction of MLKL phosphorylation versus TNF-alpha + z-VAD-fmk induced cells [1, 5]: statistically relevant (**p<0.01); reduction of MLKL phosphorylation versus TNF-alpha + z-VAD-fmk induced cells ([2]; E4 10^-7 M for 1 hr): decrease of phosphorylation of MLKL; reduction of MLKL phosphorylation versus TNF-alpha + z-VAD-fmk induced cells [2, 5]: statistically relevant (**p<0.01)
